Reference: ChEMBL document CHEMBL1154188, “Kinase inhibitor data modeling and de novo inhibitor design with fragment approaches” (J Med Chem, 2009)

Key:
[1] = target: T1, Serine/threonine-protein kinase Chk2 (Homo sapiens, UniProt O96017); test: Inhibition of recombinant CHK2 by [gamma-33P]ATP based assay
[2] = target: T2, Hepatocyte growth factor receptor (Homo sapiens, UniProt P08581); test: Inhibition of recombinant MET by [gamma-33P]ATP based assay
[3] = target: Tyrosine-protein kinase ABL1 (Homo sapiens) (UniProt P00519); test: Inhibition of recombinant ABL1 at 20 uM by [gamma-33P]ATP based assay
Sequence of Tyrosine-protein kinase ABL1 (Homo sapiens) (P00519 whole entry): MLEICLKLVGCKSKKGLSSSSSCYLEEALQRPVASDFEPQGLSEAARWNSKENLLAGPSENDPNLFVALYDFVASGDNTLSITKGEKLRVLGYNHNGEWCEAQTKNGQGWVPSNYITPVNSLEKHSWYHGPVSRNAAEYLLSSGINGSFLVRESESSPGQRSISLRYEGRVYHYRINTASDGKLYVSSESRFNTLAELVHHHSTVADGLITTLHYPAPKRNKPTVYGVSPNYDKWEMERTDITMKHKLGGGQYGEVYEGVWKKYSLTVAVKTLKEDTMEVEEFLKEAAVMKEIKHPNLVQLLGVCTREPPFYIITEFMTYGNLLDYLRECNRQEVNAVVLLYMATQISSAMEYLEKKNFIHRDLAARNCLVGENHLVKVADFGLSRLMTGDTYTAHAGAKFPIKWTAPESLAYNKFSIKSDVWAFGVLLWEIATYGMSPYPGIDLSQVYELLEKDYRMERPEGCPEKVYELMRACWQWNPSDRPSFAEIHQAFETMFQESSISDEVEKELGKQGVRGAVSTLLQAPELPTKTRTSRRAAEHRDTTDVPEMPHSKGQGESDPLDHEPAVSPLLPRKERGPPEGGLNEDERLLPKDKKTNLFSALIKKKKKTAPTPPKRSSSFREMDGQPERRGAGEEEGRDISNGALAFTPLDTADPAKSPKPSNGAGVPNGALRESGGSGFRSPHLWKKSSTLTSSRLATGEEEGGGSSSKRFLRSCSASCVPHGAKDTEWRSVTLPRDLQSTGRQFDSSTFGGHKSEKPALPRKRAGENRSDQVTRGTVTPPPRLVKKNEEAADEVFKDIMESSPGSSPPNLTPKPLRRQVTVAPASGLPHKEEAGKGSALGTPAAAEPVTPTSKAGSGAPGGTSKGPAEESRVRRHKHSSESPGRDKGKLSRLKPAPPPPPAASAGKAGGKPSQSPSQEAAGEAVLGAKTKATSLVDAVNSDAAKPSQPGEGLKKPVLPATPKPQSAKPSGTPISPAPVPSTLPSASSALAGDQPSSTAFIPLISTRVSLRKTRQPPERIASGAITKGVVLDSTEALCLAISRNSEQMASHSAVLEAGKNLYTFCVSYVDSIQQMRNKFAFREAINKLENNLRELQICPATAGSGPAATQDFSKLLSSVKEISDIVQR

[4] = target: T2, Hepatocyte growth factor receptor; test: Inhibition of recombinant MET at 20 uM by [gamma-33P]ATP based assay
[5] = target: Receptor-type tyrosine-protein kinase FLT3 (Homo sapiens) (UniProt P36888); test: Inhibition of recombinant FLT3 at 20 uM by [gamma-33P]ATP based assay
Sequence of Receptor-type tyrosine-protein kinase FLT3 (Homo sapiens) (P36888 whole entry): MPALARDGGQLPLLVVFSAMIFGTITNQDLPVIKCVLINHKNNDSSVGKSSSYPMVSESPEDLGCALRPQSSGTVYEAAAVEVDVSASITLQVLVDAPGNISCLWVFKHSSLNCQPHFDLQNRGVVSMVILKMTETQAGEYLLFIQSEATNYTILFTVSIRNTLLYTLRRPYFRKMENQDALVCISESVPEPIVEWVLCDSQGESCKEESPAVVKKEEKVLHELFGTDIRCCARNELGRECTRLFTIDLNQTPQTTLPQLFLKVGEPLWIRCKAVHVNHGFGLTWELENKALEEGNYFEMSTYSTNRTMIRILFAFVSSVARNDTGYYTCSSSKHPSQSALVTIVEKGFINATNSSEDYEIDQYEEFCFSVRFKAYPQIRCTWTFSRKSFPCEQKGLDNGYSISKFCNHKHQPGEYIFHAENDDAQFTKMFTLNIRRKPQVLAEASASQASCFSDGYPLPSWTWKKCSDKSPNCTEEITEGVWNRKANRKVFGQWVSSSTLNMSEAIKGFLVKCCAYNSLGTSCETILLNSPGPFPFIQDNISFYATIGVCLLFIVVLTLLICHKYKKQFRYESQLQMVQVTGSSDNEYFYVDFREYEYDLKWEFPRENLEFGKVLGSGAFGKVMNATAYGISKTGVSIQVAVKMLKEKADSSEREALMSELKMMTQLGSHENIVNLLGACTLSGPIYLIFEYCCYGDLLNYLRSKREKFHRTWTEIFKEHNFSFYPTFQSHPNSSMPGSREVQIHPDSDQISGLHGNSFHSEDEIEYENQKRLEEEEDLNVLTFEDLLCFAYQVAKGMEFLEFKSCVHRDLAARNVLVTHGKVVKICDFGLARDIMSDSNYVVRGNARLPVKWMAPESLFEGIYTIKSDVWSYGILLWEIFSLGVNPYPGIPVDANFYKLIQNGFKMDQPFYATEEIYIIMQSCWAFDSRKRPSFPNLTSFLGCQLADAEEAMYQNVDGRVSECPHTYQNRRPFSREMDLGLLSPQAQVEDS

[6] = target: T1, Serine/threonine-protein kinase Chk2; test: Inhibition of recombinant CHK2 at 20 uM by [gamma-33P]ATP based assay
[7] = target: Ribosomal protein S6 kinase beta-1 (Homo sapiens) (UniProt P23443); test: Inhibition of recombinant P70S6K at 20 uM by [gamma-33P]ATP based assay
Sequence of Ribosomal protein S6 kinase beta-1 (Homo sapiens) (P23443 whole entry, looked up): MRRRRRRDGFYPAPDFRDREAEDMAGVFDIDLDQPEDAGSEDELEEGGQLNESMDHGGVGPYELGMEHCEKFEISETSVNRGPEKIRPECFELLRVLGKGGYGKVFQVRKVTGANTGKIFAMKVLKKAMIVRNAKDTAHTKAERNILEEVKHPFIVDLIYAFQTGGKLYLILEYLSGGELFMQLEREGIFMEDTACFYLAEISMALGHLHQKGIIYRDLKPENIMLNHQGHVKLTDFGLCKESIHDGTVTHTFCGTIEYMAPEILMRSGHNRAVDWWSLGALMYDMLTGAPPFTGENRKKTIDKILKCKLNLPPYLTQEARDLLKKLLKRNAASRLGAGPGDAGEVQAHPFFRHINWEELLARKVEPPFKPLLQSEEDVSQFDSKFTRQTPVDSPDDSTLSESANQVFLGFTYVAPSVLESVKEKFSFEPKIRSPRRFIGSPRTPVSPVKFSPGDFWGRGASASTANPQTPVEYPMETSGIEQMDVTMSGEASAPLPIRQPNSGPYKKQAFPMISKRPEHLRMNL

[8] = target: Rho-associated protein kinase 2 (Homo sapiens) (UniProt O75116); test: Inhibition of recombinant ROCK2 at 20 uM by [gamma-33P]ATP based assay
Sequence of Rho-associated protein kinase 2 (Homo sapiens) (O75116 whole entry, looked up): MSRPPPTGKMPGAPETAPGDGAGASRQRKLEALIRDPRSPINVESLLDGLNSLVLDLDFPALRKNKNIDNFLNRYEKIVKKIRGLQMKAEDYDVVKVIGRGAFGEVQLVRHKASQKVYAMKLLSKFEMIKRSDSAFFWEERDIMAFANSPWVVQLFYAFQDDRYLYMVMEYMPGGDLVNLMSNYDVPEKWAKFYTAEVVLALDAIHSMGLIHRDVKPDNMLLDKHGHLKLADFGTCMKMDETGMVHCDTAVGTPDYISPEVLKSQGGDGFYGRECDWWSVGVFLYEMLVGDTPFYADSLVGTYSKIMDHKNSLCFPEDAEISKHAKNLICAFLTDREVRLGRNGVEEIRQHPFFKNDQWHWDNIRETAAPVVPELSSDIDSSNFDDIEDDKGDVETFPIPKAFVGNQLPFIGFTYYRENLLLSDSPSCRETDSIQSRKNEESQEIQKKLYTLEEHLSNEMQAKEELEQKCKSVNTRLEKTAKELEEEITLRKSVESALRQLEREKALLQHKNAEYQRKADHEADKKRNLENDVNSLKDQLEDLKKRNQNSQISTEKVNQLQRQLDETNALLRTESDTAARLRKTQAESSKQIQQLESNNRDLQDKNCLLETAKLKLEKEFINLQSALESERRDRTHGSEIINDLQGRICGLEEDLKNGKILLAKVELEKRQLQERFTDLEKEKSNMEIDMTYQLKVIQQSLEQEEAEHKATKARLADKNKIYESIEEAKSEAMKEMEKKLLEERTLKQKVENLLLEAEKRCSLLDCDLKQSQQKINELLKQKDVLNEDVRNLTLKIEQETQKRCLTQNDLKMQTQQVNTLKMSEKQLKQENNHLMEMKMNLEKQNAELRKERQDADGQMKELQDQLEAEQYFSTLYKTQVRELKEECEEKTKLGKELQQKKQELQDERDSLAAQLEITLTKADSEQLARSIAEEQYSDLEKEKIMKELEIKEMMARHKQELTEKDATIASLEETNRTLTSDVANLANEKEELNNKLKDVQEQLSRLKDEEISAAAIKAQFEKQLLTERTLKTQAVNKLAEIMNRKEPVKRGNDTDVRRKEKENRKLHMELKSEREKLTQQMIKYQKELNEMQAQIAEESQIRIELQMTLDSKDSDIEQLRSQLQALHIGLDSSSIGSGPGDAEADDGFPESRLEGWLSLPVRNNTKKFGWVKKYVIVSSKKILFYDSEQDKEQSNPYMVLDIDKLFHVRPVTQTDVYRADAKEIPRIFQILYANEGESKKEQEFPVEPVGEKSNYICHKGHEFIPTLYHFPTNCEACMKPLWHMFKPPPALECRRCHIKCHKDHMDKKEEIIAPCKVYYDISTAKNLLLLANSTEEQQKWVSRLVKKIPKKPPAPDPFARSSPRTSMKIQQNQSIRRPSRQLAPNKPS

T1 sequence (O96017 whole entry): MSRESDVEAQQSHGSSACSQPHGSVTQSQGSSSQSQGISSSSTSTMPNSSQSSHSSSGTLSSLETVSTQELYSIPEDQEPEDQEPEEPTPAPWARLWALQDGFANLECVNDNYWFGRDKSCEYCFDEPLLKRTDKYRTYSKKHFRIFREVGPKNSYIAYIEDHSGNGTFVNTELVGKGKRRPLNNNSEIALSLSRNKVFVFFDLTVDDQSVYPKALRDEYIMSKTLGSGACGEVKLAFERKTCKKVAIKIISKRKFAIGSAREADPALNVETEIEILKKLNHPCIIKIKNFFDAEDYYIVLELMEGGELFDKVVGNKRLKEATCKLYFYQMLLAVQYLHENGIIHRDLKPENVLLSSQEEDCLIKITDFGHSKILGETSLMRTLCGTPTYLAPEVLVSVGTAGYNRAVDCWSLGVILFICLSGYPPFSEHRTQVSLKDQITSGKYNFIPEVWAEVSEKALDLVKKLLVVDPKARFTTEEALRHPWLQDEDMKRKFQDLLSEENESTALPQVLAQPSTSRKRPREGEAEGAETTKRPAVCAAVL

Row | Structure (SMILES) | IC50 [1] | IC50 [2] | inhibition [3] | inhibition [4] | inhibition [5] | inhibition [6] | inhibition [7] | inhibition [8]
1 | Nc1ncc(-c2ccc(C(=O)NCC3CCNCC3)cc2)nc1Oc1ccc2cc[nH]c2c1 | 1120 nM | 3330 nM | 94% | 96% | 94% | 97% | 92% | 98%
2 | CC(Oc1nc(-c2ccc(C(=O)NCC3CCCNC3)cc2)cnc1N)c1c(Cl)cccc1Cl (stereo unspecified) | 1130 nM | 1210 nM | 11% | 53% | 61% | 60% | 45% | 42%
3 | Nc1ncc(-c2ccc(C(=O)NCC3CCCN3)cc2)nc1Oc1ccc2cc[nH]c2c1 (stereo unspecified) | 960 nM | 4270 nM | 87% | 77% | 100% | 98% | 86% | 97%

Compounds with a lower IC50 [1], results first:

Row | IC50 [1] | IC50 [2] | inhibition [3] | inhibition [4] | inhibition [5] | inhibition [6] | inhibition [7] | inhibition [8] | Structure (SMILES)
4 | 800 nM | 5520 nM | 85% | 73% | 102% | 98% | 98% | 99% | Nc1ncc(-c2ccc(C(=O)NC3CCNCC3)cc2)nc1Oc1ccc2cc[nH]c2c1
5 | 890 nM | 7090 nM | 81% | 65% | 99% | 98% | 101% | 98% | Nc1ncc(-c2ccc(C(=O)NCC3CCCNC3)cc2)nc1Oc1ccc2cc[nH]c2c1 (stereo unspecified)
6 | 610 nM | 13700 nM | 84% | 65% | 86% | 96% | 100% | 37% | Nc1ncc(-c2ccc(C(=O)N[C@@H]3CCNC3)cc2)nc1Oc1ccc2cc[nH]c2c1
7 | 580 nM | 3550 nM | 87% | 75% | 93% | 98% | 89% | 98% | Nc1ncc(-c2ccc(C(=O)NCC3CCNC3)cc2)nc1Oc1ccc2cc[nH]c2c1 (stereo unspecified)
